According to patent US7112586B2, “Substituted diamine derivatives useful as motilin antagonists” (Ortho-McNeil Pharmaceutical, Inc., priority 2000, dated 2006):

Target: T1, Motilin Receptor (Oryctolagus cuniculus, UniProt G1T803)
T1 construct: The muscle tissue was homogenized in 10 volumes of 50 mM Tris-Cl; from tissue; host or cells: rabbit colon smooth muscle, crude membrane homogenate
Test: Motilin receptor binding, rabbit colon membranes, 125I porcine motilin
Design: Rabbit Colon % Inh / inhibition / % Inh (Rabbit colon): dose or concentration left out as unconfirmed
Settings: rabbit colon membranes; for inhibition: read-out: Rabbit Colon % Inh; for IC50: read-out: Rabbit Colon IC50; for % Inh (Rabbit colon): 125I porcine motilin binding
Method: Rabbit colon was removed, dissected free from the mucosa and serosa, and diced into small pieces. The muscle tissue was homogenized in 10 volumes of 50 mM Tris-Cl, 10 mM MgCl2, 0.1 mg/ml bacitracin, and 0.25 mM Peflabloc, at pH 7.5 in a Polytron (29000 rpm, 4×15 seconds). The homogenate was centrifuged at 1000×g for 15 minutes and the supernatant discarded. The pellet was washed twice before being suspended in homogenizing buffer. The crude homogenate was resuspended through a 23 gauge needle before storing at −80° C. […] After 60 minutes at 30° C., the samples were cooled in ice, centrifuged in the cold at 13000×g for 1 minute. The pellet was washed twice with 1 ml of cold saline, the supernatant was aspirated, and the pellet at the bottom of the tube counted in a gamma counter. Non-specific binding was determined by the inclusion of 1 mM of unlabeled motilin. IC50 values were determined from Kaleidograph curves.

T1 sequence (G1T803 1-400): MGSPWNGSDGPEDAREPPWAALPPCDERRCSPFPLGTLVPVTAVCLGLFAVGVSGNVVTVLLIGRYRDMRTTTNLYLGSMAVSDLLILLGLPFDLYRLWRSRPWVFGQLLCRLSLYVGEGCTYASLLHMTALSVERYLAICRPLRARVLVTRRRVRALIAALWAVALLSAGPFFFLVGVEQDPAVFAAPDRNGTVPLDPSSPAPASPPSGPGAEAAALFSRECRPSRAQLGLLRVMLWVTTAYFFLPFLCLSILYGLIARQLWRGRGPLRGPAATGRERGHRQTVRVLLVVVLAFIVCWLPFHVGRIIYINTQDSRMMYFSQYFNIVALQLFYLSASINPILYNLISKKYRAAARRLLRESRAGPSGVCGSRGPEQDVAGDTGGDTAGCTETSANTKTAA

| Rabbit Colon % Inh [%] | inhibition [%] | IC50 [nM] | Structure (SMILES) | further results |
| --- | --- | --- | --- | --- |
| 27 |  |  | O=C(Nc1ccccc1)N(CC1CCCC(N(Cc2cccc(Cl)c2)C(=O)C(c2ccccc2)c2ccccc2)C1)c1cccc(OCCN2CCOCC2)c1 (centres unmarked) [compound 56] |  |
| 62 |  |  | CN(CCOc1cccc(N(CC2CCCC(N(Cc3cccc(Cl)c3)C(=O)C(C)(C)C)C2)C(=O)c2ccc(F)cc2)c1)Cc1ccccc1 (racemic) [compound 232] |  |
|  | 69 | 1050 | COc1cccc(C(=O)N(Cc2cccc(Cl)c2)C2CCCC(CN(C(=O)c3ccc(F)cc3)c3cccc(OCCN4CCOCC4)c3)C2)c1 (centres unmarked) [compound 106] |  |
|  | 87 | 64 | Cc1ccc(OCCN2CCCC2)cc1N(Cc1ccc(F)cc1)C(=O)CCCC(=O)N(CCc1ccccc1)Cc1ccccc1 [compound 207] |  |
|  | 63 | 550 | O=C(CCC(=O)N(Cc1ccccc1F)c1cccc(OCCN2CCOCC2)c1)N(CCc1ccccc1)Cc1ccccc1 [compound 165] |  |
| 48 |  |  | O=C(CCCN(C(=O)Nc1ccccc1)c1cccc(OCCN2CCOCC2)c1)N(Cc1ccccc1)Cc1ccccc1 [compound 23] |  |
| 2 |  |  | O=C(Nc1ccccc1)N(CC1CCC(N(Cc2ccccc2)C(=O)Cc2ccccc2)CC1)c1cccc(OCCN2CCOCC2)c1 (centres unmarked) [compound 183] |  |
| 32 |  |  | COc1ccc(CCN(Cc2ccccc2)C(=O)CCCN(C(=O)c2ccc(F)cc2)c2cccc(OCCN3CCOCC3)c2)cc1 [compound 146] |  |
|  | 96 | 168 | CC(C)(C)C(=O)N(Cc1cccc(Cl)c1)C1CCCC(CN(C(=O)c2ccc(F)cc2)c2cccc(OCCN3CCCCC3)c2)C1 (centres unmarked) [compound 237] |  |
| 27 |  |  | O=C(CCCN(C(=O)c1ccc(F)cc1)c1cccc(OCCN2CCOCC2)c1)N1CCN(C(c2ccccc2)c2ccc(Cl)cc2)CC1 (centres unmarked) [compound 149] |  |
|  | 35 |  | O=C(CCCN(C(=O)Nc1ccccc1)c1cccc(OCCN2CCOCC2)c1)N(CCc1ccccc1)Cc1ccccc1 [compound 1] |  |
| 25 |  |  | O=C(c1ccc(F)cc1)N(CC1CCCC(N2C(=O)CC3(CCCC3)CC2=O)C1)c1cccc(OCCN2CCOCC2)c1 (centres unmarked) [compound 254] |  |
|  | 98 | 97 | O=C(c1ccc(F)cc1)N(CC1CCCC(N(Cc2cccc(Cl)c2)C(=O)C(Cl)(Cl)Cl)C1)c1cccc(OCCN2CCCCC2)c1 (centres unmarked) [compound 238] |  |
|  |  | 73 | O=C(c1ccc(F)cc1)N(C[C@H]1CCC[C@@H](N(Cc2cccc(Cl)c2)C(=O)C(Cl)(Cl)Cl)C1)c1cccc(OCCN2CCCCC2)c1 [ID 239] |  |
| 25 |  |  | O=C(Nc1ccccc1)N(CC1CCCC(NC(=O)C(F)(F)F)C1)c1cccc(OCCN2CCOCC2)c1 (centres unmarked) [compound 73] |  |
| 3 |  |  | O=C(Nc1ccccc1)N(CC1CCCC(N(Cc2ccccc2)C(=O)c2ccc(-c3ccccc3)cc2)C1)c1cccc(OCCN2CCOCC2)c1 (centres unmarked) [compound 83] |  |
| 55 |  |  | COc1cccc(CN(C(=O)C(Cl)(Cl)Cl)C2CCCC(CN(C(=O)Nc3ccccc3)c3cccc(OCCN4CCOCC4)c3)C2)c1 (centres unmarked) [compound 61] |  |
|  | 98 | 39 | O=C(Nc1ccccc1)N(CC1CCCC(N(Cc2ccccc2)C(=O)C(Cl)(Cl)Cl)C1)c1cccc(OCCN2CCCC2)c1 (centres unmarked) [compound 224] |  |
| 0 |  |  | O=C(NC1CCCC(CN(C(=O)Nc2ccccc2)c2cccc(OCCN3CCOCC3)c2)C1)c1ccco1 (centres unmarked) [compound 70] |  |
|  | 75 | 760 | O=C(c1ccc(F)cc1)N(CC1CCCC(N(Cc2cc(Cl)cc(Cl)c2)C(=O)C(Cl)(Cl)Cl)C1)c1cccc(OCCN2CCOCC2)c1 (centres unmarked) [compound 98] |  |
| 51 |  |  | O=C(c1ccc(F)cc1)N(CC1CCCC(N(Cc2ccccc2)C(=O)c2cccc([N+](=O)[O-])c2)C1)c1cccc(OCCN2CCOCC2)c1 (centres unmarked) [compound 113] |  |
| 17 |  |  | CCN(Cc1ccc(C)cc1)C(=O)CCCCN(c1cccc(OCCN2CCOCC2)c1)S(=O)(=O)c1ccc(C)cc1 [compound 35] |  |
|  | 91 | 100 | O=C(CCCC(=O)N(Cc1ccc(F)cc1)c1cccc(OCCN2CCCC2)c1)N(CCc1ccccc1)Cc1cc(Cl)cc(Cl)c1 [compound 199] |  |
| 35 |  |  | COc1ccc(CC(=O)N(Cc2cccc(Cl)c2)C2CCCC(CN(C(=O)c3ccc(F)cc3)c3cccc(OCCN4CCOCC4)c3)C2)cc1 (centres unmarked) [compound 243] |  |
| 40 |  |  | O=C(CCCC(=O)N(Cc1ccc(C(F)(F)F)cc1)c1cccc(OCCN2CCOCC2)c1)N(CCc1ccccc1)Cc1ccccc1 [compound 172] |  |
|  | 98 | 240 | O=C(CCCC(=O)N(Cc1ccc(F)cc1)c1cccc(OCCN2CCCC2)c1)N(CCN1CCCC1)Cc1cccc(Cl)c1 [compound 203] |  |
| 0 |  |  | O=C(Nc1ccccc1)N(CC1CCC(N(Cc2cccc(Cl)c2)C(=O)c2ccco2)CC1)c1cccc(OCCN2CCOCC2)c1 (centres unmarked) [compound 185] |  |

| Rabbit Colon % Inh [%] | inhibition [%] | IC50 [nM] | Structure (SMILES) | further results |
| --- | --- | --- | --- | --- |
| 32 |  |  | O=C(Nc1ccccc1)N(CC1CCCC(N(Cc2cccc(Cl)c2)C(=O)c2ccc(-c3ccccc3)cc2)C1)c1cccc(OCCN2CCOCC2)c1 (centres unmarked) [compound 50] |  |
| 8 |  |  | Cc1ccc(S(=O)(=O)N(CCCCC(=O)N(C)Cc2ccccc2)c2cccc(OCCN3CCOCC3)c2)cc1 [compound 20] |  |
|  | 61 | 772 | CC(C)(C)C(=O)N(Cc1ccccc1)C1CCCC(CN(C(=O)c2ccc(F)cc2)c2cccc(OCCN3CCOCC3)c2)C1 (centres unmarked) [compound 116] |  |
| 6 |  |  | Cc1ccc(S(=O)(=O)N(CCCC(=O)N(Cc2ccccc2)Cc2ccccc2)c2cccc(OCCN3CCOCC3)c2)cc1 [compound 24] |  |
|  |  |  | O=C(Nc1ccccc1)N(CC1CCCC(NCc2cccc3ccccc23)C1)c1cccc(OCCN2CCOCC2)c1 (centres unmarked) [compound 88] | % Inh (Rabbit colon): 0% |
| 32 |  |  | O=C(Nc1ccccc1)N(CC1CCCC(N(Cc2cccc3ccccc23)C(=O)C(Cl)(Cl)Cl)C1)c1cccc(OCCN2CCOCC2)c1 (centres unmarked) [compound 64] |  |
| 23 |  |  | O=C(Nc1ccccc1)N(CC1CCCC(N(Cc2ccc(Cl)c(Cl)c2)C(=O)C(Cl)(Cl)Cl)C1)c1cccc(OCCN2CCOCC2)c1 (centres unmarked) [compound 59] |  |
|  | 100 | 84 | Cc1c(OCCN2CCCC2)cccc1N(Cc1ccc(F)cc1)C(=O)CCCC(=O)N(CCc1ccccc1)Cc1cccc(C(=O)O)c1 [compound 215] |  |
|  | 62 | 572 | O=C(c1ccc(F)cc1)N(CC1CCCC(N(Cc2ccc(Cl)c(Cl)c2)C(=O)C(Cl)(Cl)Cl)C1)c1cccc(OCCN2CCOCC2)c1 (centres unmarked) [compound 99] |  |
| 78 |  |  | O=C(c1ccc(F)cc1)N(CC1CCCC(N(Cc2cccc(F)c2)C(=O)C(Cl)(Cl)Cl)C1)c1cccc(OCCN2CCOCC2)c1 (centres unmarked) [compound 100] |  |
| 61 |  |  | CN1CCCC1CCOc1cccc(N(CC2CCCC(N(Cc3cccc(Cl)c3)C(=O)C(C)(C)C)C2)C(=O)c2ccc(F)cc2)c1 (racemic) [compound 235] |  |
|  | 69 | 954 | O=C(c1ccc(F)cc1)N(CC1CCCC(N(Cc2ccccc2)C(=O)C(F)(F)F)C1)c1cccc(OCCN2CCOCC2)c1 (centres unmarked) [compound 120] |  |
| 39 |  |  | CCN(Cc1ccc(C)cc1)C(=O)CCCN(c1cccc(OCCN2CCOCC2)c1)S(=O)(=O)c1ccc(C)cc1 [compound 31] |  |
| 55 |  |  | O=C(Nc1ccccc1)N(CC1CCCC(N(Cc2ccc(Cl)cc2)C(=O)C(Cl)(Cl)Cl)C1)c1cccc(OCCN2CCOCC2)c1 (centres unmarked) [compound 63] |  |
| 34 |  |  | O=C(NC1CCCC(CN(C(=O)Nc2ccccc2)c2cccc(OCCN3CCOCC3)c2)C1)c1cccc([N+](=O)[O-])c1 (centres unmarked) [compound 80] |  |
| 22 |  |  | O=C(CCCCN(C(=O)Nc1ccccc1)c1cccc(OCCN2CCOCC2)c1)N(Cc1ccccc1)Cc1ccccc1 [compound 26] |  |
|  |  |  | O=C(Nc1ccccc1)N(CC1CCCC(NCc2cc(Cl)cc(Cl)c2)C1)c1cccc(OCCN2CCOCC2)c1 (centres unmarked) [compound 87] | % Inh (Rabbit colon): 22% |
| 58 |  |  | O=C(Nc1ccccc1)N(CC1CCCC(N(Cc2cccc(C(F)(F)F)c2)C(=O)C(Cl)(Cl)Cl)C1)c1cccc(OCCN2CCOCC2)c1 (centres unmarked) [compound 62] |  |
| 53 |  |  | CN1CCCC1CCOc1cccc(N(CC2CCCC(N(Cc3cccc(Cl)c3)C(=O)C(Cl)(Cl)Cl)C2)C(=O)c2ccc(F)cc2)c1 (racemic) [compound 236] |  |
| 18 |  |  | O=C(CCCCN(C(=O)c1ccc(F)cc1)c1cccc(OCCN2CCOCC2)c1)N(Cc1ccccc1)Cc1ccccc1 [compound 29] |  |
| 0 |  |  | O=C(c1ccc(F)cc1)N(CC1CCCC(N2C(=O)c3ccc(F)cc3C2=O)C1)c1cccc(OCCN2CCOCC2)c1 (centres unmarked) [compound 251] |  |
|  | 93 | 21 | CC(C)(C)C(=O)N(Cc1ccccc1)[C@@H]1CCC[C@H](CN(C(=O)Nc2ccccc2)c2cccc(OCCN3CCCC3)c2)C1 [compound 225] |  |
| 30 |  |  | O=C(NC(c1ccccc1)c1ccccc1)c1cccc(CN(C(=O)c2ccc(F)cc2)c2cccc(OCCN3CCOCC3)c2)c1 [compound 137] |  |
| 39 |  |  | O=C(Nc1ccccc1)N(CC1CCCC(N(Cc2cccc(Cl)c2Cl)C(=O)C(Cl)(Cl)Cl)C1)c1cccc(OCCN2CCOCC2)c1 (centres unmarked) [compound 66] |  |
| 43 |  |  | O=C(c1cccc(CN(C(=O)c2ccc(F)cc2)c2cccc(OCCN3CCOCC3)c2)c1)N(CCc1ccccc1)Cc1ccccc1 [compound 136] |  |
|  | 83 | 275 | O=C(CCCC(=O)N(Cc1ccc(F)cc1)c1cccc(OCCN2CCOCC2)c1)N(CCCc1ccccc1)Cc1ccccc1 [compound 159] |  |
